Experimental data published in patent publication US20150224089A1, “COMBINATIONS OF IKKi/TBK1 INHIBITORS WITH BETA ADRENERGIC AGONISTS OR SYMPATHETIC NERVOUS SYSTEM ACTIVATORS” (THE REGENTS OF THE UNIVERSITY OF MICHIGAN, priority 2014, published 2015).

How the values were obtained:
3T3-L1 adipocytes [1] = experiment: cAMP levels in 3T3-L1 adipocytes; type: cell-based
Procedure: (§1) (A) Glycerol release from 3T3-L1 adipocytes treated with or without different concentrations of TNFα as indicated for 24 hr followed by treatment with or without 10 μM ISO or 50 μM FSK. (B) cAMP levels from 3T3-L1 adipocytes treated with or without 100 ng/ml TNFα for 24 hr followed by treatment with or without 10 μM ISO or 50 μM FSK in the presence or absence of pretreatment of 50 μM Amlexanox (Am). (C) cAMP levels from 3T3-L1 adipocytes treated with or without 100 ng/ml TNFα for 24 hr followed by treatment with or without 50 μM FSK in the presence or absence of pretreatment of 1 μM CAY10576 (CAY). (D) Immunoblots of whole cell lysates from 3T3-L1 adipocytes treated with or without different concentrations of TNFα as same as FIG. 2A for 24 hr followed by treatment with or without 10 μM ISO or 50 μM FSK. Results were replicated in multiple experiments. ‘[’ indicates total HSL. ‘n.s.’ represents non-specific band. Arrow indicates CGI-58. (E) Immunoblots of whole cell lysates from 3T3-L1 adipocytes treated with or without 50 ng/ml TNFα or 100 μg/ml poly (I:C) for 24 hr followed by treatment with or without 10 μM ISO for 15 min in the presence or absence of pretreatment with increasing concentrations (0, 10, 50, and 200 μM) of amlexanox for 30 min.
(A) cAMP levels from 3T3-L1 adipocytes expressing empty vector, Flag-IKKε, or Flag-TBK1 treated with or without 50 μM FSK, 250 μM IBMX, or together for 15 min. (B) cAMP levels from 3T3-L1 adipocytes expressing empty vector, Flag-IKKε, or Flag-TBK1 treated with or without 10 μM ISO or 50 μM FSK together with or without 10 μM Zardaverine (Zarda) for 15 min. (C) 32P phospho-image of in vitro kinase reaction using either immunoprecipitated HA-PDE3B from HEK293T cells or 1 μg MBP (myelin basic protein) as a substrate with recombinant kinases as indicated. (D) Immunoblots of immunoprecipitation with anti-HA antibodies followed by treatment with or without CIP (top panel) and whole cell lysates (bottom panel) from Cos-1 cells co-expressing HA-PDE3B with Flag-IKKε/TBK1 or Flag-IKKε/TBK1 K38A. D.E. stands for dark exposure and L.E. stands for light exposure. (E) Immunoblots of GST-14-3-3 pulldown from HEK293T cells co-expressing HA-PDE3B with Flag-TBK1 or Flag-TBK1 K38A.
Obesity is accompanied by infiltration of proinflammatory macrophages into adipose tissue; these cells secrete inflammatory cytokines, such as TNFα, which generate insulin resistance by stimulating catabolic pathways (Hotamisligil, 2006; Lumeng et al., 2007; Ye and Keller, 2010; Ouchi et al., 2011; herein incorporated by reference in their entireties). Although TNFα is known to increase lipolysis in adipocytes (Zhang et al., 2002; Souza et al., 2003; Green et al., 2004; Plomgaard et al., 2008; herein incorporated by reference in their entireties), there is also evidence of a counterinflammatory response in obesity that may serve to repress energy expenditure (Gregor and Hotamisligil, 2011; Saltiel, 2012; Calay and Hotamisligil, 2013; Reilly et al., 2013; herein incorporated by reference in their entireties). Experiments were conducted during development of embodiments of the present invention using TNFα to model the inflammatory milieu of obese adipose tissue in cell culture to determine whether the cytokine might also regulate β-adrenergic signaling in this context. While short-term treatment with TNFα augmented the increase in cAMP produced by forskolin treatment, this effect declined after 12 hr. […] Thus, the catabolic effects of the proinflammatory cytokine TNFα in adipocytes are transient and followed by an inhibitory phase.
Treatment of 3T3-L1 adipocytes with TNFα for 24 hr induced the expression of IKKε and increased TBK1 phosphorylation at the active site in a manner that was dependent on the activity of IKKβ and the NFκB pathway (Reilly et al., 2013; herein incorporated by reference in its entirety). […]

3T3-L1 adipocytes [2] = experiment: Ucp1 gene expression in 3T3-L1 adipocytes; type: cell-based; details: empty vector-expressing cells; 10 μM for 4 hr; treated relative to control samples
Procedure: (§2) (A) Fold increase in Ucp1 expression in 3T3-L1 adipocytes expressing empty vector, Flag-IKKε, or Flag-IKKε K38A following treatment with or without 10 μM ISO (black bars) or 10 μM CL-316,243 (CL, gray bars) for 4 hr. (B) Glycerol release from 3T3-L1 adipocytes expressing empty vector (white bars), Flag-IKKε (black bars), or Flag-IKKε K38A (gray bars) treated with or without 10 μM ISO or 10 μM CL. (C) Immunoblots of whole cell lysates from FIG. 1B. Results were replicated in triplicate. D.E. stands for dark exposure and L.E. stands for light exposure. (D) Immunoblots of whole cell lysates from 3T3-L1 adipocytes expressing empty vector or Flag-IKKε treated with or without 50 μM FSK for 15 min. (E) cAMP levels from 3T3-L1 adipocytes expressing empty vector, Flag-IKKε, or Flag-IKKε K38A treated with or without 10 μM ISO or 50 μM FSK for 15 min.
Sympathetic activation of adipose tissue is involved in maintaining energy balance by stimulating lipolysis and fat oxidation (Coppack et al., 1994; Langin, 2006; Festuccia et al., 2011; herein incorporated by reference in their entireties). Activation of β-adrenergic signaling by either β-adrenergic agonists or cold exposure in white and brown adipose tissue initiates a cascade of events through cyclic AMP (cAMP), culminating in the transcriptional upregulation of Ucp1, which results in increased proton leak and energy expenditure (Himms-Hagen et al., 2000; Cao et al., 2004; Yehuda-Shnaidman et al., 2010; herein incorporated by reference in their entireties). […] This effect was further analyzed by overexpressing IKKε in 3T3-L1 adipocytes and examining Ucp1 gene expression after treatment with the non-selective β-adrenergic agonist, isoproterenol (ISO), or the β3-adrenergic agonist, CL-316,243. Fold difference in Ucp1 gene expression was calculated by normalization of relative Ucp1 mRNA levels in treated relative to control samples. […] The induction of Ucp1 gene expression in response to ISO or CL-316,243 was blunted when WT IKKε was overexpressed in these cells. […]

3T3-L1 adipocytes [3] = experiment: Glycerol release (lipolysis) from 3T3-L1 adipocytes; type: cell-based; details: for lipolysis (glycerol release): empty vector-expressing cells, 10 μM
Procedure: as §2, §1
The obesity-dependent increase was modeled in the noncanonical IKKs by overexpressing IKKε in 3T3-L1 adipocytes, followed by assay of glycerol release in response to ISO or CL-316,243. […] Overexpression of TBK1 reduced phosphorylation of HSL in response to isoproterenol or the adenylyl cyclase activator, forskolin (FIG. 1). Identical results were obtained when IKKε was overexpressed in 3T3-L1 adipocytes stimulated with forskolin (FIG. 1D), as detected by western blotting with an anti-phospho-PKA substrate motif antibody. […]

diet-induced obese mice = experiment: Serum FFA and glycerol after CL-316,243 injection in ND- or HFD-fed mice; type: in vivo; details: normal diet mice, vehicle and amlexanox-treated; 15 min after IP CL-316,243 injection
Procedure: (A) Fold increase in serum FFA (left panel) and glycerol (right panel) levels 15 min after CL-316,243 injection in ND- or HFD-fed mice treated with amlexanox or vehicle control for 4 days. (B) Glycerol release from ex vivo epididymal (left panel) and inguinal (right panel) WATs after 1 hr pretreatment with amlexanox or vehicle. CL-316,243 treatment was started at time zero. (C) Immunoblots in inguinal WAT lysates from FIG. 5B after 60 min of CL-316,243 treatment. (D) cAMP levels in epididymal WAT 20 min after CL-316,243 (CL) or saline control injection in HFD-fed mice treated with amlexanox or vehicle control for 4 days. (E) Immunoblots in epididymal WAT 5 min after CL-316,243 or saline control injection in HFD-fed mice treated with amlexanox or vehicle control for 4 days. (F) Relative oxygen comsumption of mice in each treatment group.
To test the functional importance of the noncanonical IKKs in maintaining energy balance in vivo, experiments were conducted during development of embodiments of the present invention to investigate whether the administration of a selective inhibitor of IKKε and TBK1, amlexanox, can reverse diet-induced catecholamine resistance in rodentsMice were fed a high fat or normal diet, treated them with amlexanox by oral gavage for 4 days (prior to the point when weight loss is seen), and then gave a single intraperitoneal (IP) injection of the β3-adrenergic agonist CL-316,243. Injection of CL-316,243 stimulated a threefold increase in serum FFA and glycerol levels in both vehicle and amlexanox-treated mice on normal diet (ND).

3T3-L1 adipocytes [4] = experiment: Immunoblots of β-adrenergic/PKA signaling (HSL, perilipin, PKA substrate, p38 phosphorylation) in 3T3-L1 adipocytes; type: cell-based; details: treatment with Poly (I:C)
Procedure: as §1, with “Results were replicated in multiple experiments. ‘[’ indicates total HSL. ‘n.s.’ represents non-specific band.” left out
Experiments were conducted during development of embodiments of the present invention to determine whether the repression of β-adrenergic sensitivity produced by longer-term treatment with TNFα is due to increased activity of the noncanonical IKKs.

COc1cc2ncn(-c3cc(OCc4ccccc4S(C)(=O)=O)c(C#N)s3)c2cc1OC [CAY10576]
rescue of TNFα-decreased forskolin-stimulated cAMP production (3T3-L1 adipocytes [1]; preincubation with 1 μM CAY10576, 100 ng/ml TNFα 24 hr, 50 μM FSK): largely rescued

C[C@H](Cc1ccc2c(c1)OC(C(=O)[O-])(C(=O)[O-])O2)NC[C@H](O)c1cccc(Cl)c1.[Na+].[Na+] [CL-316,243]
increase in Ucp1 mRNA levels (3T3-L1 adipocytes [2]): twofold
lipolysis (glycerol release) (3T3-L1 adipocytes [3]): increased lipolysis
increase in serum FFA levels (diet-induced obese mice): threefold
increase in serum glycerol levels (diet-induced obese mice): threefold

CC(C)Cn1c(=O)n(C)c(=O)c2[nH]cnc21 [IBMX]
cAMP production in response to forskolin in adipocytes expressing IKKε or TBK1 (3T3-L1 adipocytes [1]; 250 μM IBMX, 50 μM FSK, 15 min): rescued the full stimulation of cAMP production

CC(C)NCC(O)c1ccc(O)c(O)c1 (centres unmarked) [isoproterenol]
increase in Ucp1 mRNA levels (3T3-L1 adipocytes [2]): 1.6 fold
lipolysis (glycerol release) (3T3-L1 adipocytes [3]): increased lipolysis

Poly (I:C)
stimulation of lipolysis in response to β-adrenergic stimulation (3T3-L1 adipocytes [3]; treatment with Poly (I:C)): reduced
stimulation of cAMP production in response to β-adrenergic stimulation (3T3-L1 adipocytes [1]; treatment with Poly (I:C)): reduced
stimulation of phosphorylation in response to β-adrenergic stimulation (3T3-L1 adipocytes [4]): reduced
